The values below come from patent publication US4057644A, “Active derivatives of methylamine in therapeutic compositions and methods of use” (priority 1976, dated 1977).

Data set [1] deals with neuroleptic-induced catatonia (prochlorperazine). The data set can be described thus: Inhibition of neuroleptic-induced catatonia. Type of data set: in vivo, rat (male, OFA strain). To be noted: rat, oral; for activity compared with amantadine (neuroleptic-induced catatonia): versus amantadine. As to the method: The blocking of dopaminergic receptors by neuroleptics in the extra-pyramidal system induces catatonia in the rat. Catatonia is differentiated from sedative properties by means of the test used hereabove for reserpine-induced catatonia. The same system of scoring was also employed in the present case.
An oral dose of the compound to be studied in aqueous solution was administered to batches of 10 male rats of the OFA strain weighing about 150 to 200 g.
Three hours after the injection of this latter compound, catatonia was measured. An identical trial was also carried out with control animals which received prochlorperazine but none of the compounds under study.

In a further data set the test system is mice. To be noted: for Index LD50/ED20-30: LD50 mice oral / dose giving 20 to 30% inhibition of catatonia; for Index LD50/ED100: LD50 mice oral / dose giving 100% inhibition of catatonia.
Data set [2] deals with reserpine-induced catatonia. Briefly: Inhibition of reserpine-induced catatonia. Format: in vivo, rat (male, OFA strain). To be noted: rat, oral. As to the method: Ater sufficient doses of reserpine have been administered to the rat, a series of symptoms occur, more particularly ptosis, catatonia and a drop in central temperature. These symptoms are caused by the depletion of the intrangranular reserve pool of biogenetic amines at the synaptic terminals.
An oral dose of the compound to be studied in aqueous solution was administered to batches of 10 male rats of the OFA strain weighing about 150 to 200 g. Thirty minutes later a dose of 5 mg/kg of reserpine was given by intraperitoneal route. Three hours after the injection of reserpine, the animals were suspended by the four paws to a horizontally stretched wire fixed at 15 cm from the ground. The catatonic animals were those which maintained the position so given for at least 30 seconds. […] The maximum score was therefore 10 per batch. An identical trial was undertaken with control animals which received reserpine but none of the compounds being studied.

For data set [3] the following is noted: J. Amer. Chem. Soc., 71, 3352 (1949); cited from earlier work.
For data set [4] the following is noted: J. Amer. Chem. Soc., 71, 3352 (1949); cited from earlier work. The source holds these as a separate data set.
Another data set can be described thus: in vivo. The conditions noted are these: mouse, po.
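For Index LD50/ED100 in this document: LD50 part of every column derived from compounds dosed in aqueous solution, deaths followed over a 10-day observation period after dosing.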
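For Index LD50/ED20-30 in this document: LD50 part of every column derived from compounds dosed in aqueous solution, deaths followed over a 10-day observation period after dosing.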
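For LD50 in this document: LD50 part of every column derived from compounds dosed in aqueous solution, deaths followed over a 10-day observation period after dosing.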

Consider `CCCC(N)(CC)CCC` [Compound 2, 1-Ethyl-1-n-propyl-n-butylamine], for which the “Inhibition of the neuroleptic-induced catatonia” value in data set [1] (5 mg/kg) was 1 (represents 20 to 30% inhibition of catatonia in comparison with the controls (namely a score of 7 to 8 per studied batch)). For the same molecule, the “Index LD50/ED20-30” value in the data set with mice amounted to 30.

With `CCCC(N)(CC)CC(C)C` (centres unmarked) [Compound 3, 1-Ethyl-1-isobutyl-n-butylamine], in data set [1] (20 mg/kg), the “Inhibition of the neuroleptic-induced catatonia” value is 3 (represents 70 to 80% inhibition of catatonia in comparison with the controls (namely a score of 2 or 3 per studied batch)).

On to `CCCC(N)(CCC)CC(C)C` [Compound 5, 1-n-Propyl-1-isobutyl-n-butylamine], for which, in data set [1], the “activity compared with amantadine (neuroleptic-induced catatonia)” value is “five times more active”. Moreover, the “Inhibition of reserpine-induced catatonia” value in data set [2] (20 mg/kg) is 2 (represents 50% inhibition of catatonia in comparison with the controls (namely a score of 5 per studied batch)).

Take `CCCC(C)(N)CC(C)CC` (centres unmarked) [Compound 6, 1,3-Dimethyl-1-n-propyl-n-pentylamine]: in the data set with mice, the “Index LD50/ED20-30” value is listed as above 25.

Regarding `CCCCC(C)(N)CC(C)C` (centres unmarked) [Compound 8, 1-Methyl-1-isobutyl-n-pentylamine], the “activity compared with amantadine (neuroleptic-induced catatonia)” value in data set [1] is “twice as active”.

As for `CCCCCC(C)(N)CCC` (centres unmarked) [Compound 9, 1-Methyl-1-n-propyl-n-hexylamine], the “Index LD50/ED20-30” value in the data set on mice was 87.

Turning to `CCCCC(N)(CCCC)CCCC` [Compound 12, 1,1-Di-n-butyl-n-pentylamine], the “Index LD50/ED20-30” value in the data set with mice is recorded as 25. In data set [3], the “toxicity versus the corresponding trialkylethylamines” value is given as “more toxic”. The “spasmolytic activity versus the corresponding trialkylethylamines” value in data set [4] is “less spasmolytic”.

Regarding `CCCC(CCC)(CCC)NC` [Compound 27, N-methyl-1,1-di-n-propyl-n-butylamine], the “Inhibition of the neuroleptic-induced catatonia” value in data set [1] (6 mg/kg) is recorded as 3 (represents 70 to 80% inhibition of catatonia in comparison with the controls (namely a score of 2 or 3 per studied batch)). Further, the “Index LD50/ED100” value in the data set with mice is reported as 16.5. Besides, the LD50 (as a rule, the dose expected to kill half of the subjects tested) at 240 h in the data set “in vivo” turned out to be 100 mg/kg.

For the molecule `CCCC(CCC)(CCC)N1CCC1` [Compound 29, N,n-trimethylene-1,1-di-n-propyl-n-butylamine], the “Index LD50/ED100” value with mice is 10.8. This molecule yielded an LD50 at 240 h in “in vivo” of 65 mg/kg.

`CCCC(CCC)(NC)C(C)C` [Compound 30, N-methyl-1-n-propyl-1-isopropyl-n-butylamine]: the “Inhibition of the neuroleptic-induced catatonia” value in data set [1] (6 mg/kg) is 3 (represents 70 to 80% inhibition of catatonia in comparison with the controls (namely a score of 2 or 3 per studied batch)). The “Index LD50/ED100” value in the data set with mice was above 25. Moreover, the LD50 at 240 h in the data set “in vivo” is above 150 mg/kg.

As for `C=CCC(CCC)(CCC)NC` [Compound 32, N-methyl-1-n-propyl-1-alkyl-n-butylamine], the “Inhibition of reserpine-induced catatonia” value in data set [2] (5 mg/kg) is recorded as 2 (represents 50% inhibition of catatonia in comparison with the controls (namely a score of 5 per studied batch)). This molecule also yielded an LD50 at 240 h in the data set “in vivo” of 170 mg/kg.

With `CCCC(CCC)(CCC)NCC` [Compound 33, N-ethyl-1,1-di-n-propyl-n-butylamine], the “Inhibition of reserpine-induced catatonia” value in data set [2] (6 mg/kg) was 2 (represents 50% inhibition of catatonia in comparison with the controls (namely a score of 5 per studied batch)). Further, the “Index LD50/ED100” value in the data set on mice was 16.5. Also, the LD50 at 240 h in “in vivo” amounted to 100 mg/kg.

For the molecule `CCCC(CCC)(CCC)NC(C)C` [Compound 34, N-isopropyl-1,1-di-n-propyl-n-butylamine], the “Inhibition of reserpine-induced catatonia” value in data set [2] (6.5 mg/kg) is given as 2 (represents 50% inhibition of catatonia in comparison with the controls (namely a score of 5 per studied batch)). In the data set with mice, the “Index LD50/ED100” value is 21.6.

As to `C=CCNC(CCC)(CCC)CCC` [Compound 35, N-allyl-1,1-di-n-propyl-n-butylamine], the “Inhibition of reserpine-induced catatonia” value in data set [2] (6 mg/kg) is recorded as 2 (represents 50% inhibition of catatonia in comparison with the controls (namely a score of 5 per studied batch)). In the data set on mice, the “Index LD50/ED100” value is recorded as 21. The same molecule showed an LD50 at 240 h in the data set “in vivo” of 130 mg/kg.

As to `C#CCNC(CCC)(CCC)CCC` [Compound 36, N-propargyl-1,1-di-n-propyl-n-butylamine], in the data set with mice, the “Index LD50/ED20-30” value is given as above 25. Besides, the LD50 at 240 h in the data set “in vivo” is above 150 mg/kg.

With `CCCC(CCC)(CC(C)C)N(C)C` [Compound 37, N,n-dimethyl-1-n-propyl-1-isobutyl-n-butylamine], the LD50 at 240 h in the data set “in vivo” stood at 110 mg/kg.

As to `CCCC(CCC)(CCC)N(C)CC` [Compound 38, N-methyl-N-ethyl-1,1-di-n-propyl-n-butylamine], in data set [2] (6.5 mg/kg), the “Inhibition of reserpine-induced catatonia” value is 2 (represents 50% inhibition of catatonia in comparison with the controls (namely a score of 5 per studied batch)). The molecule further registered a 50% lethal dose (LD50) at 240 h in “in vivo” above 120 mg/kg.

For the molecule `C#CCN(CC#C)C(CCC)(CCC)CCC` [Compound 39, N,n-dipropargyl-1,1-di-n-propyl-n-butylamine], the “Inhibition of reserpine-induced catatonia” value in data set [2] (15 mg/kg) was 2 (represents 50% inhibition of catatonia in comparison with the controls (namely a score of 5 per studied batch)). The molecule further returned a median lethal dose (LD50) at 240 h in the data set “in vivo” above 150 mg/kg.

On to `CCCC(CCC)(CCC)N1CC1` [Compound 40, N,n-ethylene-1,1-di-n-propyl-n-butylamine], for which the “Inhibition of the neuroleptic-induced catatonia” value in data set [1] (6 mg/kg) is 1 (represents 20 to 30% inhibition of catatonia in comparison with the controls (namely a score of 7 to 8 per studied batch)); in data set [1] (12 mg/kg), 3 (represents 70 to 80% inhibition of catatonia in comparison with the controls (namely a score of 2 or 3 per studied batch)). Besides, in data set [2] (6 mg/kg), the “Inhibition of reserpine-induced catatonia” value is 2 (represents 50% inhibition of catatonia in comparison with the controls (namely a score of 5 per studied batch)). Moreover, in the data set with mice, the “Index LD50/ED20-30” value is listed as above 25. For the same molecule, the LD50 at 240 h in the data set “in vivo” is above 150 mg/kg.

On to `C=NC(CCC)(CCC)CCC` [Compound 41], for which the “Index LD50/ED100” value in the data set with mice was found to be 27. The molecule further displayed an LD50 at 240 h in “in vivo” above 150 mg/kg.

As to `CC=NC(CCC)(CCC)CCC` [Compound 42, N-ethylidene-1,1-di-n-propyl-n-butylamine], in the data set on mice, the “Index LD50/ED100” value is 20. The same molecule had a 50% lethal dose (LD50) at 240 h in the data set “in vivo” of 120 mg/kg.

For `CCCC(CCC)(CCC)NCCO` [Compound 43, N-(2-hydroxyethyl)-1,1-di-n-propyl-n-butylamine], in data set [1] (6.5 mg/kg), the “Inhibition of the neuroleptic-induced catatonia” value is on record as 1 (represents 20 to 30% inhibition of catatonia in comparison with the controls (namely a score of 7 to 8 per studied batch)). In the data set on mice, the “Index LD50/ED20-30” value is given as 23. The LD50 at 240 h in “in vivo” worked out at 150 mg/kg.

For the molecule `CCCC(CCC)(CCC)N(CCO)CCO` [Compound 44, N,n-bis-(2-Hydroxyethyl)-1,1-di-n-propyl-n-butylamine], the “Inhibition of the neuroleptic-induced catatonia” value in data set [1] (15 mg/kg) is 1 (represents 20 to 30% inhibition of catatonia in comparison with the controls (namely a score of 7 to 8 per studied batch)).

Take `CCCC(CCC)(CCC)NCCCO` [Compound 45, N-(3-hydroxy-n-propyl)-1,1-di-n-propyl-n-butylamine]: the “Inhibition of reserpine-induced catatonia” value in data set [2] (14 mg/kg) is reported as 2 (represents 50% inhibition of catatonia in comparison with the controls (namely a score of 5 per studied batch)). For the same molecule, the LD50 at 240 h in the data set “in vivo” was 140 mg/kg.

Regarding `CCCC(CCC)(CCC)N1CCOCC1` [Compound 46, N,n-(3-oxyapentamethylene)-1,1-di-n-propyl-n-butylamine], the “Index LD50/ED20-30” value in the data set with mice came out at 31. In addition, the LD50 at 240 h in the data set “in vivo” was 250 mg/kg.
